# Measurements: patent US20130045491A1, “METHODS FOR ACTIVATING T CELLS” (priority 2011, published 2013)
# Legend:
# [1] = test system: resting CCR6^+CD45RO^+CD25^− TM cells; experiment: Cytokine expression in resting CCR6+ memory T cells stimulated with cytokines without TCR stimulation; assay type: cell-based, human
# Experimental: Peripheral Blood Mononuclear Cells (PBMCs) from healthy individuals (New York Blood Center, New York, N.Y.) were prepared using Ficoll-paque plus (GE Amersham, Uppsala, Sweden). Whole blood samples from rheumatoid arthritis patients were purchased from Bioreclamation (New York, N.Y.) and were processed similar to healthy donor blood. All healthy donor and patient samples were consented prior to purchase, were none-identifiable and approved by institutional human subjects board. CD4^+ T cells were isolated using Dynal CD4 Positive Isolation Kit (Invitrogen, Carlsbad, Calif.) directly from purified PBMCs and were >99% pure. CD4^+ T cells were sorted by FACS ARIA cell sorter (BD, San Jose, Calif.) into CD45RO^+ CD25^− memory T (TM) cells. […] […] […] To determine the fold expansion, CCR6^+IL-17^+ or CCR6^+IL-17^− subsets were labeled with CFSE (Molecular Probes, Eugene, Oreg.) or eFluor 670 (eBioscience, San Diego, Calif.), respectively, as previously described (Oswald-Richter, et al., PLoS Biol 2004; 2: E198). […] In the experiments using PI-3K signaling inhibitors, cells were treated with PI-3K specific inhibitor, LY294002 (EMD, Gibbstown, N.J.), or Akt specific inhibitor, AKTi-1/2 (EMD), for 2 days before PMA and Ionomycin restimulation.
# CCR6^+IL-17^− TM cells = experiment: IL-17 induction in activated, FACS-sorted CCR6+IL-17- memory T cells cultured with cytokines, intracellular staining after PMA/ionomycin; assay type: cell-based, human; settings: for IL-17 expression in CCR6+IL-17- T cells: cultured 6 days in the cytokine, compared with IL-2, FIG. 1e
# Experimental: (§1) Peripheral Blood Mononuclear Cells (PBMCs) from healthy individuals (New York Blood Center, New York, N.Y.) were prepared using Ficoll-paque plus (GE Amersham, Uppsala, Sweden). Whole blood samples from rheumatoid arthritis patients were purchased from Bioreclamation (New York, N.Y.) and were processed similar to healthy donor blood. All healthy donor and patient samples were consented prior to purchase, were none-identifiable and approved by institutional human subjects board. CD4^+ T cells were isolated using Dynal CD4 Positive Isolation Kit (Invitrogen, Carlsbad, Calif.) directly from purified PBMCs and were >99% pure. CD4^+ T cells were sorted by FACS ARIA cell sorter (BD, San Jose, Calif.) into CD45RO^+ CD25^− memory T (TM) cells. TM cells were activated either by anti-CD3 and anti-CD28 (aCD3/aCD28) coated beads (1:4 beads:cells ratio) for 18-24 hours, or by Phorbol 12-myristate 13-acetate (PMA) and ionomycin for 4 hours and further FACS sorted based on CCR6 and IL-17 expression into CCR6^−IL-17^−, CCR6^+IL-17^+, or CCR6^+ IL-17^− subsets (as determined by secretion assay labeling, see below). Sorted cells (>99% pure) were cultured in serum-free Xvivo-15 medium (Lonza, Wakersville, Md.) at 37° C. and 5% CO2 for 6-7 days prior to restimulation with PMA and ionomycin (see below). […] To determine the fold expansion, CCR6^+IL-17^+ or CCR6^+IL-17^− subsets were labeled with CFSE (Molecular Probes, Eugene, Oreg.) or eFluor 670 (eBioscience, San Diego, Calif.), respectively, as previously described (Oswald-Richter, et al., PLoS Biol 2004; 2: E198). […] In the experiments using PI-3K signaling inhibitors, cells were treated with PI-3K specific inhibitor, LY294002 (EMD, Gibbstown, N.J.), or Akt specific inhibitor, AKTi-1/2 (EMD), for 2 days before PMA and Ionomycin restimulation.
# Manufacturer's protocols (Miltenyi Biotec) for labeling human and mouse IL-17 secreting cells were followed. Briefly, activated T-cells were washed in cold buffer (PBS+0.5% BSA+2 mM EDTA) and labeled with IL-17 catch reagent for 5 minutes on ice. Pre-warmed medium was then added and the cells were incubated at 37° C. on a shaker for 45 minutes. For human IL-17 capture experiments, cells were washed once more with cold buffer and PE-conjugated IL-17 detection antibodies were added and incubated on ice for 10 minutes. For mouse IL-17 capture experiments, all steps were identical, except that the IL-17 detection antibody used was biotinylated, and a secondary staining step using APC-conjugated streptavidin was used. Cells were then washed and stained with additional cell surface antibodies at room temperature for 20 minutes. These cells were then washed once more with cold buffer, resuspended in serum-free RPMI 1640 medium, filtered and FACS sorted. […]
# CCR6^− TM cells [2] = experiment: IL-17 induction in sorted CCR6-IL-17- memory T cells cultured with cytokines; assay type: cell-based, human; settings: cultured 6 days in the cytokine, restimulation
# Experimental: (§2) Peripheral Blood Mononuclear Cells (PBMCs) from healthy individuals (New York Blood Center, New York, N.Y.) were prepared using Ficoll-paque plus (GE Amersham, Uppsala, Sweden). Whole blood samples from rheumatoid arthritis patients were purchased from Bioreclamation (New York, N.Y.) and were processed similar to healthy donor blood. All healthy donor and patient samples were consented prior to purchase, were none-identifiable and approved by institutional human subjects board. CD4^+ T cells were isolated using Dynal CD4 Positive Isolation Kit (Invitrogen, Carlsbad, Calif.) directly from purified PBMCs and were >99% pure. CD4^+ T cells were sorted by FACS ARIA cell sorter (BD, San Jose, Calif.) into CD45RO^+ CD25^− memory T (TM) cells. TM cells were activated either by anti-CD3 and anti-CD28 (aCD3/aCD28) coated beads (1:4 beads:cells ratio) for 18-24 hours, or by Phorbol 12-myristate 13-acetate (PMA) and ionomycin for 4 hours and further FACS sorted based on CCR6 and IL-17 expression into CCR6^−IL-17^−, CCR6^+IL-17^+, or CCR6^+ IL-17^− subsets (as determined by secretion assay labeling, see below). Sorted cells (>99% pure) were cultured in serum-free Xvivo-15 medium (Lonza, Wakersville, Md.) at 37° C. and 5% CO2 for 6-7 days prior to restimulation with PMA and ionomycin (see below). […]
# CCR6^− TM cells [3] = experiment: Cytokine expression in resting CCR6- memory T cells stimulated with IL-7; assay type: cell-based, human
# Experimental: as §2
# RORC = RORC / Foxp3 mRNA expression by quantitative PCR; assay type: cell-based, human; settings: unpublished data
# Excerpt: Purified T cells (1×10^5) were snap frozen in liquid nitrogen for total RNA isolation. Total RNA was isolated using RNeasy isolation kit (Qiagen, Valencia, Calif.) according to the manufacturer's protocol. The extracted RNA was then reverse transcribed into cDNA and quantified using Taqman Cell to CT kit (Applied Biosystems, Carlsbad, Calif.). Taqman primers and probe sets were purchased from Applied Biosystems: Human KLF2 (Hs00360439_g1), RORC (Hs01076120_g1), Il-17a (Hs00174383_m1), b-Actin (Hs03023880_g1), Foxp3 (Hs00203958_m1). Data was acquired and analyzed on ABI 7500 sequence detection system. Quantitative real-time PCR data was analyzed by normalizing Ct values of genes of interest to the Ct values of the housekeeping gene b-Actin.
# CCR6^+ TM cells = experiment: Effect of PI-3K/Akt inhibitors on cytokine production of IL-7-cultured CCR6+ memory T cells; assay type: cell-based, human; settings: one week in IL-7, then inhibitor for 48 hours, restimulation
# Experimental: as §1
# Akt = experiment: Cytokine-dependent Akt phosphorylation in memory T cells treated with inhibitors; assay type: cell-based, human; settings: 1-10 μg/mL inhibitor, 48 hours
# Experimental: as §2
# TM cells = experiment: Cell viability of memory T cells treated with inhibitors; settings: 1-10 μg/mL inhibitor, 48 hours
compound,measurement,setting,value
"IL-23: cytokine from R&D Systems, used at 20 ng/mL; known to enhance Th17 cell differentiation",further induction of IL-17 or IL-22 expression in combination with IL-7,[1]; resting CCR6+ TM cells,did not significantly synergize with IL-7
same,induction of IL-17/IL-22 expression from CCR6+ human TM cells,"CCR6^+IL-17^− TM cells; IL-23 in place of γc cytokines, unpublished data",not able to compensate for γc cytokines
same,IL-17 expression in CCR6+IL-17- T cells,CCR6^+IL-17^− TM cells,did not influence IL-17 expression
IL-4: another γc-cytokine,IL-17/IL-22 (Th17 cytokine) expression in resting CCR6+ TM cells,"[1]; no TCR stimulation, unpublished data",did not promote Th17 cytokine production
same,TM cell survival,"[1]; resting TM cells, unpublished data",did not promote Th17 cytokine production in resting CCR6^+ TM cells or confer TM cell survival
"IL-7: γc-cytokine from R&D Systems, used at 20 ng/mL",enhancement of IL-17 expression compared to the same cells ex vivo (day 0),"[1]; 10 days, no TCR stimulation",more than 3 fold
same,enhancement of IL-22 expression compared to the same cells ex vivo (day 0),"[1]; 10 days, no TCR stimulation",more than 3 fold
same,increase of cells co-expressing IL-22 or IFNγ with IL-17,[1]; IL-7 stimulation,more than 5 fold
same,IFNγ production,[1]; resting CCR6+ or CCR6- TM cells cultured with IL-7,almost no impact
same,IL-17 expression in CCR6+IL-17- T cells,CCR6^+IL-17^− TM cells,induced similar levels of IL-17 expression
same,IL-17 expression in CCR6- TM cells,CCR6^− TM cells [2],neither IL-7 nor IL-15 induced IL-17 expression
same,IL-17 or IL-22 expression in CCR6- TM cells,CCR6^− TM cells [3],failed to express IL-17 or IL-22
same,RORC mRNA expression levels,RORC,"neither IL-7 stimulation, nor treatment with PI-3K or Akt inhibitors, nor overexpression of FOXO1 or KLF2 affected RORC mRNA expression levels"
O=c1[nH]c2ccccc2n1C1CCN(Cc2ccc(-c3nc4cc5nc[nH]c5cc4nc3-c3ccccc3)cc2)CC1 [AKTi-1/2],expression of IFNγ,CCR6^+ TM cells,not affected
same,expression of IL-4,CCR6^+ TM cells,less reduced
same,γc-mediated IL-17/IL-22 induction,CCR6^+ TM cells,repressed γc-mediated IL-17/IL-22 induction in a dose-dependent manner
same,cytokine-dependent phosphorylation of Akt,Akt,downregulated cytokine-dependent phosphorylation of Akt
same,cell viability,TM cells,without adversely affecting cell viability
"IL-15: γc-cytokine from R&D Systems, used at 20 ng/mL",IL-17 expression in CCR6+IL-17- T cells,CCR6^+IL-17^− TM cells,induced similar levels of IL-17 expression
same,IL-17 expression in CCR6- TM cells,CCR6^− TM cells [2],neither IL-7 nor IL-15 induced IL-17 expression
